Read-outs that look alike come from different tables or passages of the source.
Experiments:
[1] = tested on: western flower thrips nymphs; test: Determination of activity against western flower thrips nymphs (sprayed kidney bean leaves, mortality after 72 hours); format: in vivo; conditions: Frankliniella occidentalis, read-out: Mortality (%) against Western Flower Thrips Nymphs
Description: (§1) According to the solubility of test compounds, the compounds are dissolved with acetone or dimethyl sulfoxide, and then diluted with 0.1% Tween 80 solution to form a required concentration of 50 ml test liquid. The content of the acetone or the dimethyl sulfoxide in the total solution is not more than 10%.
Fresh kidney bean leaves cultured in the glasshouse were selected and uniformly sprayed with 1 ml of the test liquid by using a handheld Airbrush. The leaves were dried naturally and placed in a test tube. Fifteen tidy and healthy western flower thrips nymphs were put into the leaves. Three replicates were set for each treatment. The water treatment was set as control check. After the treatment, the treated tube were placed in a chamber of 24° C., 60%-70% relative humidity and day light. After 72 hours, the number of surviving insects was investigated, and the mortality was calculated.

[2] = tested on: Tetranychus cinnabarinus adults; test: Determination of acaricidal activity (spray on bean plant leaves with adult spider mites, mortality after 72 hours); format: in vivo; conditions: read-out: Mortality (%) against Tetranychus Cinnabarinus Adult
Description: as §1
The adult spider mites were put into two true leaves of bean plants. After the number of mites was investigated, the solution of certain concentrations of test compounds was sprayed by using a handheld Airbrush. Three replicates were set for each treatment. Then the leaves were maintained in a standard observation room. After 72 hours, the number of surviving mites was investigated, and the mortality rate was calculated. Compounds I-41, KC3, KC4 and MC were selected for parallel determination of activity against Tetranychus cinnabarinus adults.

[3] = tested on: Tribolium confusum adults; test: Determination of Tribolium confusum adults (treated feeding bran, 72 h); format: in vivo; conditions: 72 h, read-out: Mortality (%) against Tribolium Confusum Adults
Description: as §1
The test liquid was prepared in the order from low dose to high dose according to the test design. Then, the liquid of different concentrations was added to feeding bran and uniformly stirred, and dried in the shade. Then, the resulting feeding bran was collected in a paper cup. Fifty Tribolium confusum adults with consistent size were put in the paper cup. Three replicates were set for each treatment. Control check was set. The treated test materials were put in an observation room under controlled conditions. After 72 h, the number of dead and surviving adults was investigated.

Spodoptera litura = conditions: concentration of 1 ppm; cited from earlier work
Plutella xylostella [4] = conditions: concentration of 1 ppm; cited from earlier work
Plutella xylostella [5] = conditions: concentration of 200 ppm; cited from earlier work
Spodoptera littoralis = conditions: concentration of 200 ppm; cited from earlier work
Tetranychus urticae koch = conditions: concentration of 200 ppm; cited from earlier work
trips tabaci = conditions: concentration of 200 ppm; cited from earlier work

Structure (SMILES)	mortality at 10 µg/mL ([1]; 72 h) [%]	mortality at 100 µg/mL ([1]; 72 h) [%]	mortality at 10 µg/mL ([2]; 72 h) [%]	mortality at 100 µg/mL ([2]; 72 h) [%]	mortality at 600 µg/mL ([2]; 72 h) [%]	mortality at 5 µg/mL [3] [%]	mortality at 20 µg/mL [3] [%]	activities against Spodoptera litura (Spodoptera litura)	activities against Plutella xylostella (Plutella xylostella [4])	mortality at 10 µg/mL ([1]; 10 mg/L, after 72 hours) [%]	mortality at 100 µg/mL ([1]; 100 mg/L, after 72 hours) [%]	mortality at 10 µg/mL ([2]; 10 mg/L, after 72 hours) [%]	mortality at 100 µg/mL ([2]; 100 mg/L, after 72 hours) [%]	mortality at 600 µg/mL ([2]; 600 mg/L, after 72 hours) [%]	activities against Plutella xylostella (Plutella xylostella [5])	activities against Spodoptera littoralis (Spodoptera littoralis)	activities against Tetranychus urticae koch (Tetranychus urticae koch)	activities against trips tabaci (trips tabaci)
CN(C(=O)c1ccccc1)c1cccc(C(=O)Nc2c(Br)cc(C(F)(C(F)(F)F)C(F)(F)F)cc2C(F)(F)F)c1F [KC3, Broflanilide]	33	60	0	0	0	69	80	greater than or equal to 70%	greater than or equal to 70%									
O=C(Nc1cccc(C(=O)Nc2c(Br)cc(C(F)(C(F)(F)F)C(F)(F)F)cc2OC(F)F)c1F)c1ccccc1 [KC4]										37	52	0	0	0	greater than or equal to 80%	greater than or equal to 80%	greater than or equal to 80%	greater than or equal to 80%

Reference: patent publication US12274264B2, “Piperonylic acid derivative and application thereof” (SHENYANG SINOCHEM AGROCHEMICALS R&D CO., LTD., priority 2019, dated 2025)
